Experiments:
HeLa cells = test: Phototoxicity assay: HeLa cell viability (PI staining) after LED irradiation; details: for Cell viability under 1-minute irradiation / Cell viability under 5-minute irradiation / Cell viability under 15-minute irradiation: PI viability counting after 2 hours at 37° C.
Method: HeLa cells were irradiated with corresponding LED light (same light intensity for the same channel) for different periods of time under a widefield fluorescence microscope. The irradiated cells were incubated for 2 hours in a cell incubator at 37° C. Then, the cells were stained with propidium iodide (PI) for viability counting.

Rat cardiomyocytes = test: 3D-laser confocal time-series imaging of labeled rat cardiomyocytes; type: cell-based; details: 250 nM, 10-15 minutes staining
Method: Then, different microscopic imaging experiments were carried out.

Row | Compound | Cell viability under 1-minute irradiation (HeLa cells) | Cell viability under 5-minute irradiation (HeLa cells) | Cell viability under 15-minute irradiation (HeLa cells) | Phototoxicity relative to commercial dyes (times less phototoxic) (HeLa cells; HeLa cells, versus MTR CMXRos, MTDR (b53 also versus non-optimized compounds of 1-6)) | Phototoxicity comparison (in words) (HeLa cells; cell viability after continuous irradiation under high light intensity) | Time sequences after which labeled cells violently contracted to death (Rat cardiomyocytes)
1 | CC1(C)C(/C=C/C=C2/N(CCOC(=O)c3ccccc3)c3ccc4ccccc4c3C2(C)C)=[N+](CCOC(=O)c2ccccc2)c2ccc3ccccc3c21.[Br-] [Probe 1-6-1] | 100% | 95% | 25% |  |  | 
2 | CC1=[N+](CCN)c2ccc3ccccc3c2C1(C)C.[Br-] [Probe 1-6] | 100% | 99% | 95% | about 5 times | lower phototoxicity | 
3 | ClCc1ccc(C2=c3cc4c5c(c3Oc3c2cc2c6c3CCCN6CCC2)CCC[N+]=5CCC4)cc1.[Cl-] [MitoTracker Red CMXRos] | 86.9% | 0% | 0% |  |  | 
4 | C[N+]1=C(/C=C/C=C/C=C2\N(Cc3ccc(CCl)cc3)c3ccccc3C2(C)C)C(C)(C)c2ccccc21.[Cl-] [MitoTracker Deep Red FM] | 100% | 0% | 0% |  |  | 8 time sequences

Reference: US12649717B2, “Cyanine-derived compound, preparation method therefor, and application thereof” (priority 2020, dated 2026)
